The values that follow come from paper PMC3932137, “Simple, sensitive and rapid determination of linifanib (ABT-869), a novel tyrosine kinase inhibitor in rat plasma by UHPLC-MS/MS” (Chemistry Central Journal, 2014).

Series [1] can be described thus: stability of stock solutions and working solutions. The format is physicochemical. As to conditions: for time stock solutions and working standard stable at refrigerator temperature: refrigerator temperature (below 10°C). As for the experimental part:
(§1) The stability of linifanib in rat plasma during the sample storage and processing conditions was assessed by analyzing six replicates of LQC and HQC. Short-term stability was assessed after keeping the plasma samples at ambient temperature for ∼ 6 h, the freeze–thaw stability was determined after three cycles of freeze-thaw. Post-preparative stability was determined by storing the reconstituted QC samples for ∼ 48 h under autosampler conditions (maintained at 10°C) before being analyzed. Long-term stability was assessed after storage of the test samples at around −80°C for 30 days. The working solutions and stock solutions of linifanib and the IS were also evaluated for stability at room temperature for 12 h and at refrigerator temperature (below 10°C) for 15 days. The samples were considered stable in plasma at each concentration if the deviation from the mean calculated concentration of quality control samples were within ±15%.

Series [2] can be described thus: stability of linifanib in rat plasma during sample storage and processing. Format: in vitro ADME. The conditions noted are these: for Accuracy (%) / Mean ± SD concentration found: n = 6. The procedure: as §1
On the set-up of series [3]: method as in PMID 22382879, PMID 19720910. As to conditions: phase I study, cited from earlier work.
Series [4] can be described thus: pilot pharmacokinetic study of linifanib in rats (oral). The format is in vivo. As to conditions: male, Wistar albino, plasma, rat, 5 mg/kg oral, single dose. As for the experimental part: After an overnight fasting, all rats received linifanib (5 mg/kg, oral, dissolved in HPMC). Blood samples (approximately 0.5 mL) were collected from the retro-orbital plexus into heparinized microfuge tubes at different time interval after linifanib administration and plasma samples were harvested by centrifuging the blood at 4500 rpm for 8 min and stored frozen at −80 ± 10°C until analysis. The pharmacokinetic parameters: Cmax, Tmax, AUC, t½ and Kel were calculated using WinNonlin software.

[5] abbreviates: rat plasma, 30 days at −80°C, nominal 1.28 ng/mL.
Where [6] appears, read: rat plasma, 30 days at −80°C, nominal 425 ng/mL.
The mark [7] stands for this setting: rat plasma, bench top (6 hrs), nominal 1.28 ng/mL.
Setting [8] is: rat plasma, bench top (6 hrs), nominal 425 ng/mL.
Where [9] appears, read: rat plasma, freeze thaw (3 cycle), nominal 1.28 ng/mL.
The mark [10] stands for this setting: rat plasma, freeze thaw (3 cycle), nominal 425 ng/mL.
[11] abbreviates: reconstituted QC samples in injector (48 hrs, 10°C), nominal 1.28 ng/mL.
Setting [12] is: reconstituted QC samples in injector (48 hrs, 10°C), nominal 425 ng/mL.

As for `CCN(CC)CCNC(=O)c1c(C)[nH]c(/C=C2\C(=O)Nc3ccc(F)cc32)c1C` [IS, sunitinib], in series [1], the “time stock solutions and working standard stable at refrigerator temperature” value came out at 15 days; the “time stock solutions and working standard stable at room temperature” value stood at 12 h.
With `Cc1ccc(F)c(NC(=O)Nc2ccc(-c3cccc4[nH]nc(N)c34)cc2)c1` [linifanib, N-(4-(3-amino-1H-indazol-4-yl)phenyl)-N'-(2-fluoro-5-methylphenyl)urea], the “time stable in autosampler” value in series [2] (autosampler maintained at 10°C) worked out at 48 h. Also, the “Accuracy (%)” value in series [2] (setting [5]) was 98.3%; in series [2] (setting [6]) it was 90.5%; in series [2] (setting [7]), 105.0%; in series [2] (setting [8]) it was 92.7%; in series [2] (setting [9]), 101.1%; in series [2] (setting [10]), 90.7%. In addition, the entries for the “Accuracy (%)” value in series [2] (setting [11]) and in series [2] (setting [12]) were 110.6% and 107.2%, respectively. For the same compound, the “Mean ± SD concentration found” value is reported as 1.26 ± 0.10 ng/mL in series [2] (setting [5]); 384 ± 20.2 ng/mL in series [2] (setting [6]); 1.35 ± 0.06 ng/mL in series [2] (setting [7]); 393 ± 34.8 ng/mL in series [2] (setting [8]); 1.30 ± 0.10 ng/mL in series [2] (setting [9]); 385 ± 14.3 ng/mL in series [2] (setting [10]). The “Mean ± SD concentration found” value was found to be 1.42 ± 0.09 ng/mL in series [2] (setting [11]) and 455 ± 19.8 ng/mL in series [2] (setting [12]). Also, the “time stable in rat plasma at around −80°C” value in series [2] (spiked into rat plasma, around −80°C) is given as “up to 30 days”. For the same compound, in series [2] (spiked into rat plasma, room temperature), the “time stable in rat plasma at room temperature” value was “at least 6.0 h”. In addition, the “freeze-thaw stability in rat plasma” value in series [2] (spiked into rat plasma, three freeze-thaw cycle) was “stable”. Also, the “time to peak plasma concentration” value in series [3] (across all dose levels) is recorded as “approx. 2 h”. The “dose recovered as unchanged in urine” value in series [3] is on record as 15%. Further, the oral clearance in series [3] is reported as 2.7 L/h. Besides, the “pharmacokinetics (dose and time dependence)” value in series [3] was “dose proportional and time invariant”. Further, the “time stock solutions and working standard stable at refrigerator temperature” value in series [1] was 15 days. Also, the “time stock solutions and working standard stable at room temperature” value in series [1] was found to be 12 h. Besides, the k el in series [4] is 2.78e-05 s⁻¹. The half-life in series [4] (read-out: average t½ (converted)) was 400 min. Also, the AUC(0-t) in series [4] (read-out: mean AUC0-8h) was determined as 232 ng·h/mL. Also, in series [4] (read-out: mean peak plasma concentration (Cmax)), the Cmax is 55.1 ng/mL. Besides, the Tmax in series [4] (read-out: time to peak plasma concentration (Tmax)) was 2.5 h.
